The values that follow come from patent publication US11319322B2, “Substituted aryl ether compound, preparation method thereof, pharmaceutical composition and use thereof” (Xiamen University, priority 2017, dated 2022).

What all share (assay type): cell-based
Test [1] concerns the target T1, CCDC6-RET-BaF3 (Homo sapiens, UniProt P07949).
T1 construct: fused on or other part: Q16204 (Coiled-coil domain-containing protein 6)
In words: Growth inhibition of CCDC6-RET-BaF3 cells stably transfected with kinase (MTS). The note with it: 48 h, read-out: CCDC6-RET (IC50/nM). The gist of the method:
(§1)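 BaF3 cells stably expressing CCDC6-RET or KIF5B-RET, or parental BaF3, 2×10^4 cells/well, treated 48 h at 37 °C with 8-point 1:3 dilutions from 10 μM (0.1% DMSO). MTS/PES added 1–4 h, OD490 read; inhibition versus DMSO and blank gave IC50.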

For test [2], the system named is wild-type BaF3. The test is described as follows: Growth inhibition of wild-type BaF3 cells, broad-spectrum toxicity (MTS). The note with it: Mus musculus, 48 h, read-out: WT Ba/F3 (IC50/nM). The method, then: Growth inhibitory activity of compounds on cell lines stably transfected with kinase
The activity of compounds against kinase RET is evaluated by their effect of inhibiting growth of cell lines stably transfected with kinase CCDC6-RET-BaF3, KIF5B-RET-BaF3, and wild-type BaF3 (Proc. Natl. Acad. Sci. USA., 2006, 103, 3153-8.). The growth of the cell lines stably transfected with kinase CCDC6-RET-BaF3, KIF5B-RET-BaF3 depends on their kinase activity. If a compound can inhibit the activity of the kinase RET per se or the activity of the RET signaling pathway, the compound can inhibit the growth of BaF3 cells stably transfected with kinase. […] Therefore, a larger ratio between IC50 of a compound to wild-type BaF3 and IC50 of the compound to the cell lines stably transfected with kinase CCDC6-RET-BaF3, KIF5B-RET-BaF3 indicates better targeting.
The specific test method is given as follows:
1) Medium: DMEM (Dulbecco's modified eagle medium) or RPMI 1640 (containing 10% fetal bovine serum, 100 μg/mL ampicillin, 100 μg/mL streptomycin).
2) Reagents: MTS reaction solution (containing 2 mg/mL of MTS [3-(4,5-dimethylthiazol-2-yl)-5-(3-carboxymethoxyphenyl)-2-(4-sulfophenyl)-2H-tetrazolium, inner Salt]; 100 μg/mL PES (phenazine […])).
3) Compound test: cells stably transfected with kinase (CCDC6-RET-BaF3, KIF5B-RET-BaF3) or wild-type BaF3 cells (2×10^4 cells/well) were incubated into a 96-well culture plate, the volume of cell culture fluid was 90 μL, and then 10 μL of the compound at each gradient concentration was added (the highest concentration was 10 μM, which was diluted stepwise by ⅓, and 8 concentration points were set in total; the system contained 0.1% DMSO (dimethyl sulfoxide)). The cell plate with uniformly mixed compound was cultured in a cell culture incubator (37° C.; 5% CO2) for 48 h, then 20 μL of MTS reaction solution was added, uniformly mixed and incubated in the cell culture incubator (37° C.; 5% CO2) for 1-4 hr, OD values at 490 nm were measured by a microplate reader (VARIOSKAN FLASH, Thermo). Three parallels were set in each group of experiments, with 0.1% (a final concentration) DMSO as a negative control, and a medium without cells or compounds as a blank control. The cell growth inhibition rate was calculated by the following formula: Cell growth inhibition rate %=1−(ODexperimental group−ODblank group)/(ODnegative group−ODblank group)×100%
4) IC50 calculation: The semi-inhibitory concentration of the compound acting on cell growth was calculated using GradPad Prism 5 software according to the measured cell growth inhibition rate.

For test [3], the target named is T2, KIF5B-RET-BaF3 (Homo sapiens, UniProt P07949).
T2 construct: fused on or other part: P33176 (Kinesin-1 heavy chain)
T2 sequence (P07949 whole entry, change not shown, the tested form may be a part): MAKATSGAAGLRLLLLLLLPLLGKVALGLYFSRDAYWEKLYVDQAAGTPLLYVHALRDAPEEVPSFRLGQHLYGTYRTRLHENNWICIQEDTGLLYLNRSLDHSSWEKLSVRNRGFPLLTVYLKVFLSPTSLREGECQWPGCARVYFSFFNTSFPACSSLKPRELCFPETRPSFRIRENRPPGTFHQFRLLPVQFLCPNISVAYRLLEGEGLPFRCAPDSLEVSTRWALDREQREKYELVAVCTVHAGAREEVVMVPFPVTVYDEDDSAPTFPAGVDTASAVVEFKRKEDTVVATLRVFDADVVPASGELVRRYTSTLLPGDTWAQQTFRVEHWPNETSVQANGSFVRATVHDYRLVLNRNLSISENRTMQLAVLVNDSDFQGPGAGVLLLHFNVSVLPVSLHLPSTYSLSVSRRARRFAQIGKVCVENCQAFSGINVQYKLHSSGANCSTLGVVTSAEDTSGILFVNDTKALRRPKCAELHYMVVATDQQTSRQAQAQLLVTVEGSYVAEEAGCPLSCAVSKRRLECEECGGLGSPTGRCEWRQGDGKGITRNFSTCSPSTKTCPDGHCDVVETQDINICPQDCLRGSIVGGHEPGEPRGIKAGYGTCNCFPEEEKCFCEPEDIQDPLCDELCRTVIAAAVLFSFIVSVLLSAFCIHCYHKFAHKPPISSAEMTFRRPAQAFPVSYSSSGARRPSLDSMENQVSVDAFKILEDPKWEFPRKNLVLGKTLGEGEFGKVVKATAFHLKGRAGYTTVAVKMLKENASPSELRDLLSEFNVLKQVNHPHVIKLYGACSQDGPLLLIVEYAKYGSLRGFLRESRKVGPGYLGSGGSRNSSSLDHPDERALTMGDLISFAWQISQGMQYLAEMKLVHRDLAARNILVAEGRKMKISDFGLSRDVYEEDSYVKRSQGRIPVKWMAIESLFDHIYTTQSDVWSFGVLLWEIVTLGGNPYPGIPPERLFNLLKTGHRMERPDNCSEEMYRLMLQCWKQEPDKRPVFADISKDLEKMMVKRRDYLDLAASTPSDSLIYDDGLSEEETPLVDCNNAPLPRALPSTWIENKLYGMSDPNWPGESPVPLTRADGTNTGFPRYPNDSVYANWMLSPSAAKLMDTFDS
The test is described as follows: Growth inhibition of KIF5B-RET-BaF3 cells stably transfected with kinase (MTS). To be noted: 48 h, read-out: KIF5B-RET (IC50/nM). An outline of the steps: as §1

T1 sequence (P07949 whole entry, change not shown, the tested form may be a part): as above

For the compound `Cc1ccc(C(=O)Nc2ccc(CN3CCN(C)CC3)c(C(F)(F)F)c2)cc1Oc1nc(-c2cccc(O)c2)nc2cc[nH]c12` [III-m-7], the GI50 was found to be 1410 nM in test [1] and 2350 nM in test [3]. Moreover, in test [2], the IC50 was determined as 4330 nM.

Take `CN1CCN(Cc2ccc(C(=O)Nc3cc(Oc4nc(-c5cccnc5)nc5ccn(C)c45)ccc3Cl)cc2C(F)(F)F)CC1` [III-k-3]: the GI50 in test [1] worked out at 1250 nM; in test [3] it was 1190 nM. Also, the IC50 in test [2] was 1170 nM.

As for `Cc1ccc(C(=O)Nc2ccc(CN3CCN(C)CC3)c(C(F)(F)F)c2)cc1Oc1nc(-c2ccncc2)nc2ccn(C)c12` [III-m-10], the GI50 in test [1] is 544 nM; in test [3] it was 1050 nM. In addition, the IC50 in test [2] was found to be 623 nM.

On to `Cc1ccc(Oc2nc(-c3ccc(Cl)cc3)nc3ccn(C)c23)cc1NC(=O)c1ccc(CN2CCN(C)CC2)c(C(F)(F)F)c1` [III-j-12], for which the GI50 in test [1] is 2660 nM; in test [3] it was 2970 nM. Also, the IC50 in test [2] turned out to be 2150 nM.

`Cc1ccc(NC(=O)c2ccc(CN3CCN(C)CC3)c(C(F)(F)F)c2)cc1Oc1nc(-c2cccnc2)nc2ccsc12` [VI-i-1]: the GI50 came out at 1950 nM in test [1] and 1470 nM in test [3]. For the same compound, in test [2], the IC50 came out at 1530 nM.

As for `Cc1ccc(Oc2nc(-c3ccc(O)cc3)nc3cc[nH]c23)cc1NC(=O)c1ccc(CN2CCN(C)CC2)c(C(F)(F)F)c1` [III-j-13], the GI50 in test [1] was found to be 1720 nM; in test [3], 2400 nM. In addition, the IC50 in test [2] turned out to be 4150 nM.

`CN1CCN(Cc2ccc(NC(=O)c3cccc(Oc4cc(-c5cccnc5)nc5[nH]ccc45)c3)cc2C(F)(F)F)CC1` [V-I-1]: the GI50 in test [1] and in test [3] was 1460 nM each time. Also, the IC50 in test [2] was 2070 nM.

For the compound `CN1CCN(Cc2ccc(C(=O)Nc3cc(Oc4nc(-c5ccoc5)nc5cc[nH]c45)ccc3Cl)cc2C(F)(F)F)CC1` [III-k-5], the GI50 in test [1] was 1490 nM; in test [3], 1920 nM. The IC50 in test [2] is 4360 nM.

For the compound `Cc1ccc(C(=O)Nc2cc(CN3CCN(C)CC3)cc(C(F)(F)F)c2)cc1Oc1nc(-c2ccncc2)nc2ccsc12` [VI-q-2], the figures for the GI50 in test [1] and in test [3] were 1520 nM and 1470 nM, respectively. The IC50 in test [2] was determined as 1520 nM.

Regarding `Cc1ccc(Oc2nc(-c3ccc(O)cc3)nc3c2ncn3C)cc1NC(=O)c1ccc(CN2CCN(C)CC2)c(C(F)(F)F)c1` [I-j-4], the GI50 in test [1] worked out at 1010 nM; in test [3], 1610 nM. Moreover, in test [2], the IC50 worked out at 1790 nM.

For the compound `Cc1ccc(Oc2nc(-c3ccoc3)nc3c2ncn3C)cc1NC(=O)c1ccc(CN2CCN(C)CC2)c(C(F)(F)F)c1` [I-j-6], the GI50 in test [1] amounted to 221 nM; in test [3], 1180 nM. Besides, the IC50 in test [2] is 4220 nM.

Take `CN1CCN(Cc2ccc(NC(=O)c3cccc(Oc4nc(-c5cccnc5)nc5c4ncn5C)c3)cc2C(F)(F)F)CC1` [I-l-2]: in test [1], the GI50 was determined as 3610 nM. Besides, the IC50 in test [2] was determined as 1360 nM.

`Cc1ccc(C(=O)Nc2ccc(CN3CCN(C)CC3)c(C(F)(F)F)c2)cc1Oc1nc(-c2ccc(O)cc2)nc2ccn(C)c12` [III-m-16]: the GI50 in test [1] worked out at 3670 nM; in test [3], 4420 nM. For the same compound, the IC50 in test [2] turned out to be 4360 nM.

In the case of `Cc1ccc(Oc2nc(-c3cccnc3)nc3ccsc23)cc1NC(=O)c1ccc(CN2CCN(C)CC2)c(C(F)(F)F)c1` [VI-j-1], the GI50 was 2700 nM in test [1] and 3960 nM in test [3]. Besides, the IC50 in test [2] was found to be 3380 nM.

For the compound `Cc1ccc(Oc2nc(-c3ccccc3)nc3ccn(C)c23)cc1NC(=O)c1ccc(CN2CCN(C)CC2)c(C(F)(F)F)c1` [III-j-7], the values for the GI50 in test [1] and in test [3] were 1270 nM and 1370 nM, respectively. Besides, the IC50 in test [2] was 2560 nM.

Turning to `CN1CCN(Cc2ccc(NC(=O)c3cccc(Oc4nc(-c5cccnc5)nc5ccsc45)c3)cc2C(F)(F)F)CC1` [VI-l-1], the results for the GI50 in test [1] and in test [3] were 2640 nM and 3220 nM, respectively. In addition, the IC50 in test [2] was found to be 4620 nM.

On to `Cc1ccc(C(=O)Nc2cccc(C(F)(F)F)c2)cc1Oc1nc(-c2ccncc2)nc2nn(C)cc12` [IV-e-2], for which the GI50 was found to be 2910 nM in test [1] and 8450 nM in test [3]. Further, the IC50 in test [2] was 2220 nM.

Take `CN1CCN(Cc2ccc(C(=O)Nc3cc(Oc4nc(-c5ccsc5)nc5ccn(C)c45)ccc3Cl)cc2C(F)(F)F)CC1` [III-k-8]: the GI50 in test [1] is 3460 nM; in test [3] it was 3580 nM. For the same compound, the IC50 in test [2] was determined as 3990 nM.

As for `Cc1ccc(C(=O)Nc2ccc(CN3CCN(C)CC3)c(C(F)(F)F)c2)cc1Oc1nc(N2CCN(C)CC2)nc2ccn(C)c12` [III-m-23], the figures for the GI50 in test [1] and in test [3] were 515 nM and 477 nM, respectively. The IC50 in test [2] was determined as 464 nM.

`Cc1ccc(Oc2nc(-c3ccc(O)cc3)nc3ccn(C)c23)cc1NC(=O)c1ccc(CN2CCN(C)CC2)c(C(F)(F)F)c1` [III-j-14]: the GI50 in test [1] came to 876 nM; in test [3], 1380 nM. Also, the IC50 in test [2] worked out at 1340 nM.

With `CN1CCN(Cc2ccc(C(=O)Nc3cc(Oc4nc(-c5ccoc5)nc5ccn(C)c45)ccc3Cl)cc2C(F)(F)F)CC1` [III-k-6], the figures for the GI50 in test [1] and in test [3] were 990 nM and 1010 nM, respectively. Moreover, in test [2], the IC50 was found to be 2470 nM.

Turning to `Cc1ccc(C(=O)Nc2cc(CN3CCN(C)CC3)cc(C(F)(F)F)c2)cc1Oc1nc(-c2cccnc2)nc2ccn(C)c12` [III-q-3], the GI50 in test [1] and in test [3] was 1400 nM throughout. Moreover, the IC50 in test [2] came out at 1380 nM.

As for `CN1CCN(Cc2ccc(NC(=O)c3cccc(Oc4nc(-c5ccncc5)nc5[nH]cnc45)c3)cc2C(F)(F)F)CC1` [I-l-1], the GI50 in test [1] amounted to 476 nM; in test [3], 1950 nM. The IC50 in test [2] was over 10000 nM.

On to `Cc1ccc(Oc2cc(-c3ccncc3)nc3[nH]ccc23)cc1C(=O)Nc1ccc(CN2CCN(C)CC2)c(C(F)(F)F)c1` [V-n-2], for which the GI50 was 580 nM in test [1] and 616 nM in test [3]. Also, the IC50 in test [2] turned out to be 2070 nM.

Consider `Cc1ccc(Oc2nc(-c3ccsc3)nc3c2ncn3C)cc1NC(=O)c1ccc(CN2CCN(C)CC2)c(C(F)(F)F)c1` [I-j-7], for which the results for the GI50 in test [1] and in test [3] were 1030 nM and 1440 nM, respectively. Besides, in test [2], the IC50 amounted to 2410 nM.

For `Cc1ccc(NC(=O)c2ccc(CN3CCN(C)CC3)c(C(F)(F)F)c2)cc1Oc1nc(-c2cccnc2)nc2cc[nH]c12` [III-i-1], the GI50 in test [1] worked out at 4110 nM; in test [3], 2850 nM.

As for `Cc1ccc(Oc2nc(-c3ccsc3)nc3c2cnn3C)cc1NC(=O)c1ccc(CN2CCN(C)CC2)c(C(F)(F)F)c1` [II-j-4], the GI50 was determined as 2070 nM in test [1] and 2360 nM in test [3].

On to `Cc1ccc(C(=O)Nc2ccc(CN3CCN(C)CC3)c(C(F)(F)F)c2)cc1Oc1nc(-c2ccoc2)nc2c1cnn2C` [II-m-9], for which the figures for the GI50 in test [1] and in test [3] were 75.1 nM and 14.6 nM, respectively.

For `Cc1ccc(Oc2nc(-c3ccncc3)nc3ccn(C)c23)cc1NC(=O)c1ccc(CN2CCN(C)CC2)c(C(F)(F)F)c1` [III-j-6], the GI50 in test [1] stood at 28 nM; in test [3], 13.2 nM.

Consider `Cc1ccc(-c2nc(Oc3ccc(Cl)c(NC(=O)c4ccc(CN5CCN(C)CC5)c(C(F)(F)F)c4)c3)c3[nH]ccc3n2)cc1` [III-k-15], for which the GI50 was determined as 2200 nM in test [1] and 2380 nM in test [3].

Consider `Cc1ccc(Oc2nc(-c3ccncc3)nc3cc[nH]c23)cc1C(=O)Nc1ccc(CN2CCN(C)CC2)c(C(F)(F)F)c1` [III-n-2], for which the GI50 in test [1] is 53.7 nM; in test [3], 21 nM.
